# Source: patent US10201559B2, “Compositions of selenoorganic compounds and methods of use thereof” (Alltech, Inc., priority 2014, dated 2019)
# Entries after “also recorded” stand apart in the source; their conditions may differ.
# Columns and labels:
# Nicastrin [1] = test: Real-time RT-PCR, Nicastrin in IMR-32 cells; format: cell-based, human
# Procedure: (§1) Human IMR-32 cells were seeded on gelatinized 6-well (6.5×10^5 cells/well) or 24-well (1.3×10^5 cells/well) plates, while mouse liver AML-12 cells were cultured on uncoated 6-well (3.33×10^5 cells/well) or 24-well (6.7×10^4 cells/well) plates. Cells were treated with vehicle (control) or various compounds for 6, 24 or 48 hr. Total RNA from these cells was using Trizol (Invitrogen) according to the Manufacturer's protocol, and then incubated with DNase I to remove any potential contaminated genomic DNA. Then RNA samples were subjected to real-time PCR analysis using the Applied-Bioscience's RT kit and predesigned Taqman probes (Invitrogen), as described previously (Lan et al EMBO J 2003). Three to six samples were analyzed in each treatment group. Data were normalized by Actin B (Actb) or Glyceraldehyde Phosphate Dehydrogenase (Gapdh) levels in each sample, and are presented as mean±sem of 3-6 samples.
# pFOXO4 T28 = test: Western blot, pFOXO4 T28 in IMR-32 cells; format: cell-based, human; settings: individual compound, 150 ppb
# Procedure: (§2) IMR-32 and AML12 cells were seeded on 6-well plates, and then treated with vehicle and various compounds for 6 and 24 hr, as described above. After treatments, cells were rinsed with ice-cold PBS, and lysed in the ice-cold RIPA buffer containing complete proteinase and phosphotase inhibitors (Themo-Fisher Scientific, Waltham, Mass.) on ice for 30 min. Cell lysates were collected using a cell scraper and transfer pipette, and then centrifuged at 12000 g for 30 min at 4° C. to remove the DNA pellet and obtain the protein extract. Protein levels in the supernatant of these cell lysates were determined using the Pierce Micro-BCA protein assay kit (Themo Scientific-Piece Biotechnology, Rockford, Ill.) according to the manufacturer's protocol.
# (§3) For Western blot analysis, five micrograms of total proteins from vehicle- and compound(s)-treated cells were subjected to SDS-PAGE gel separation, and then transferred to PVDF membranes, as described previously (Reddy, Liu et al. 2008 Science). Membranes were blocked in a phosphate-buffered saline (PBS) containing 5% (w/v) of bovine serum albumin (Sigma, St. Louis, Mo.), and incubated with specific primary antibodies followed by the incubation with HRP-conjugated anti-mouse or anti-rabbit secondary antibodies (1:5000 dilution, Cell Signaling Inc.). All primary antibodies except G6PC (Santa Cruz), Actb (Li-COR, Lincoln, Nebr.), Elf2bε and pElf2bε (Abcam, Cambridge, Mass.) were purchased from Cell Signaling Inc. Positive signals on the membrane blots were detected using the Amersham's enhanced chemiluminescence Western Blotting Prime Detection reagents (GE healthcare Lifescience, Pittsburgh, Pa.). Images of these luminescence signals on the membrane blots were captured using the LI-COR Odyssey Fc Image system (Lincoln, Nebr.). The same membrane blot was striped and re-blotted with another antibody as described in the GE WB ECL-prime-detection protocol (GE healthcare Lifescience, Pittsburgh, Pa.). Protein band densities in the Western blots were determined using the Li-COR Image studio software or NIH ImageJ software, and then normalized by Actb level in each sample. Data are presented as mean±sem of three samples per each group.
# AML-12 cells = test: Cell viability assay, AML-12; format: cell-based, mouse; settings: 48 hr
# Procedure: (§4) Cell viability in cultured cells was determined using Promega's CellTiter96® AQueous One Solution Cell Proliferation Assay kits, according to the Manufacturer's protocol. In brief, equal number of C2C12 (1×10^4 cells/well), AML-12 (1×10^4 cells/well) and IMR-32 (2×10^4 cells/well) were seeded on 96-well clear plates (VWR) and treated with vehicle or compounds for 24, […] and/or 72 hr. Then, cultured cells were incubated with AQueous One solution (100 ul/per well) at 37° C. for 1 hr, and the absorbance of OD490 nm in each sample was determined by the Bio-Tek microplate reader. Cell viability in culture cells were determined by the subtraction of OD490 nm in cultured cells with the OD490 nm in plain culture media (without seeding of cells). Eight samples per each treatment were examined for the above analysis. Data are presented as Mean±sem of eight samples.
# pGSK3b = test: Western blot, pGSK3b in AML-12 cells; format: cell-based, mouse; settings: individual compounds, 6 or 24 hr
# Procedure: as §2
# as §3, with “The same membrane blot was striped and re-blotted with another antibody as described in the GE WB ECL-prime-detection protocol (GE healthcare Lifescience, Pittsburgh, Pa.).” left out, “Data are presented as mean±sem of three samples per each group.” left out
# Nicastrin [2] = test: Western blot, Nicastrin in IMR-32 cells; format: cell-based, human; settings: 150 ppb, 24 hr
# Procedure: as §2
# as §3, with “The same membrane blot was striped and re-blotted with another antibody as described in the GE WB ECL-prime-detection protocol (GE healthcare Lifescience, Pittsburgh, Pa.).” left out, “Data are presented as mean±sem of three samples per each group.” left out
# PSEN = test: Real-time RT-PCR, PSEN in IMR-32 cells; format: cell-based, human; settings: individual compound
# Procedure: as §1
# pFOXOs = test: Western blot, FOXO phosphorylation (pFOXOs) in AML-12 cells treated with individual compounds; format: cell-based, mouse; settings: 150 ppb, 6 or 24 hr
# Procedure: as §2
# as §3, with “The same membrane blot was striped and re-blotted with another antibody as described in the GE WB ECL-prime-detection protocol (GE healthcare Lifescience, Pittsburgh, Pa.).” left out, “Data are presented as mean±sem of three samples per each group.” left out
# pAKT = test: Western blot, pAKT in AML-12 cells; format: cell-based, mouse; settings: for increased phosphorylation of AKT: individual compounds, 6 or 24 hr
# Procedure: as §2, §3
# total Tau = test: Western blot, total Tau in IMR-32 cells; format: cell-based, human; settings: 150 ppb, 24 hr
# Procedure: as §2
# as §3, with “The same membrane blot was striped and re-blotted with another antibody as described in the GE WB ECL-prime-detection protocol (GE healthcare Lifescience, Pittsburgh, Pa.).” left out, “Data are presented as mean±sem of three samples per each group.” left out
# IMR-32 cells [3] = test: Quantitative analysis of mitochondrial potential in IMR-32 cells; format: cell-based, human; settings: for enhanced MT potential compared with sulfur analogs: 24 hr
# Procedure: Similar to the above studies on AML-12 cells, the mitochondrial potential per cell in living IMR-32 cells was determined using the Bio-TeK Synergy HT Multi-Mode fluorescence microplate reader with the following modifications. To improve the attachment of IMR-32 cells to culture dishes, cell culture plates were precoated with 0.1% gelatin (Sigma, St. Louis, Mo.). 2×10^4 cells per a 96-well were seeded on gelatinized 96-well plates for the above studies. To reduce the cell dislodgment, Mitotracker orange and Hoechst 33342 fluorescent dyes (diluted in culture media) were directly added to each well after vehicle- or compound-treatments. After dye incubation, cell culture media were carefully replaced with 1× PBS for the quantitation analysis of fluorescence on the microplate reader. Eight samples per each treatment were examined for the above analysis, and the experiments were repeated at least five times. Data are presented as mean±sem of eight samples.
# pTau S400/T403/S404 = test: Western blot, pTau S400/T403/S404 in IMR-32 cells; format: cell-based, human; settings: 150 ppb, 24 hr
# Procedure: as §2
# as §3, with “The same membrane blot was striped and re-blotted with another antibody as described in the GE WB ECL-prime-detection protocol (GE healthcare Lifescience, Pittsburgh, Pa.).” left out, “Data are presented as mean±sem of three samples per each group.” left out
# pElf2beS539 = test: Western blot, pElf2beS539 in IMR-32 cells; format: cell-based, human; settings: 150 ppb
# Procedure: as §2
# as §3, with “The same membrane blot was striped and re-blotted with another antibody as described in the GE WB ECL-prime-detection protocol (GE healthcare Lifescience, Pittsburgh, Pa.).” left out, “Data are presented as mean±sem of three samples per each group.” left out
# total FOXO = test: Western blot, total FOXO in IMR-32 cells; format: cell-based, human; settings: 150 ppb (of each compound)
# Procedure: as §2
# as §3, with “The same membrane blot was striped and re-blotted with another antibody as described in the GE WB ECL-prime-detection protocol (GE healthcare Lifescience, Pittsburgh, Pa.).” left out, “Data are presented as mean±sem of three samples per each group.” left out
# IMR-32 cells [4] = test: Cell viability assay, IMR-32; format: cell-based, human; settings: 24, 48 and 72 hr
# Procedure: as §4
# Gsk3b = test: Real-time RT-PCR, Gsk3b in IMR-32 cells; format: cell-based, human
# Procedure: as §1
# pGSk3a = test: Western blot, pGSk3a in AML-12 cells; format: cell-based, mouse; settings: individual compounds, 6 or 24 hr
# Procedure: as §2
# as §3, with “The same membrane blot was striped and re-blotted with another antibody as described in the GE WB ECL-prime-detection protocol (GE healthcare Lifescience, Pittsburgh, Pa.).” left out, “Data are presented as mean±sem of three samples per each group.” left out
# [5] = continuous 48 hr single treatment
Structure (SMILES),Nicastrin mRNA expression (Nicastrin [1]; 24 hr),decrease of pFoxo4 (pFOXO4 T28) levels (pFOXO4 T28; 6 hr),decrease of pFoxo4 (pFOXO4 T28) levels (pFOXO4 T28; 24 hr),cell viability (OD490 nm) (AML-12 cells),increased phosphorylation of Gsk3b (pGSK3b),Nicastrin protein level (Nicastrin [2]),PSEN mRNA expression (PSEN; 24 hr),FOXO phosphorylation (increased pFOXOs) (pFOXOs),increased phosphorylation of AKT (pAKT),total Tau protein level (total Tau),"MT potential (IMR-32 cells [3]; 6 hr, compared to control)",enhanced MT potential compared with sulfur analogs (IMR-32 cells [3]),MT potential (IMR-32 cells [3]; [5]),phosphorylation of Tau at S400/T403/S404 (pTau S400/T403/S404),pElf2beS539 protein level (pElf2beS539),total FOXO levels (total FOXO),cell viability (OD490 nm) (IMR-32 cells [4]),Gsk3b mRNA expression (Gsk3b; 6 hr),Gsk3b mRNA expression (Gsk3b; 24 hr),increased phosphorylation of Gsk3a (pGSk3a),also measured
"C[Se]C[C@H]1O[C@@H](n2cnc3c(N)ncnc32)C(O)C1O (stereo in doubt) [compound C, 5′-Methylselenoadenosine]",significant decrease in Nicastrin mRNA expression,statistically significant,statistically significant,no toxic effects,did not observed the increased phosphorylation,significant reduction,significantly reduced,did not increase FOXO phosphorylation,did not observed the increased phosphorylation,did not affect total Tau protein level,a trend towards elevated MT potential,more pronounced,did not affect MT potential,significantly inhibited the phosphorylation of Tau at S400/T403/S404,not affected,"neither the CDE combination nor the individual C, D or E treatments brought about any change",lack of toxic effects; also recorded: Improved neuronal cell survival,significantly decreased,trend of decreased Gsk3b mRNA expression,did not observed the increased phosphorylation,Nicastrin mRNA expression (Nicastrin [1]; 6 hr): trend towards reduced Nicastrin mRNA expression; PSEN mRNA expression (PSEN; 6 hr): significantly reduced
"Nc1ncnc2c1ncn2[C@@H]1O[C@H](C[Se]CC[C@@H](N)C(=O)O)C(O)C1O (stereo partly drawn) [compound D, 5′-Selenoadenosyl homocysteine]","did not inhibit, but instead stimulated",statistically significant,–,no toxic effects,did not observed the increased phosphorylation,trend towards reduced Nicastrin protein expression,"did not inhibit, but instead stimulated",did not increase FOXO phosphorylation,did not observed the increased phosphorylation,had no effect,significantly enhanced MT potential,more pronounced,did not affect MT potential,had no effect on Tau phosphorylation at all tested serine/threonine residues,not affected,"neither the CDE combination nor the individual C, D or E treatments brought about any change",lack of toxic effects,did not significantly inhibit Gsk3b mRNA expression,significant increase of Gsk3b mRNA expression,did not observed the increased phosphorylation,"enhanced MT potential compared with respective sulfur analog(s) (IMR-32 cells [3]; 6 hr): more pronounced; MT potential (IMR-32 cells [3]; repeated treatments (24 hr + 24 hr), 15 and 150 ppb): significantly enhanced MT potential"
"C[Se]CC(NC(=O)CCC(N)C(=O)O)C(=O)O (stereo not drawn) [compound E, gamma-glutamyl-methylseleno-cysteine]","did not inhibit, but instead stimulated",statistically significant,statistically significant,no toxic effects,did not observed the increased phosphorylation,trend towards reduced Nicastrin protein expression,"did not inhibit, but instead stimulated",did not increase FOXO phosphorylation,did not observed the increased phosphorylation,significantly down-regulated,significantly enhanced MT potential,more pronounced,did not affect MT potential,significantly down-regulated,not affected,"neither the CDE combination nor the individual C, D or E treatments brought about any change",lack of toxic effects,did not significantly inhibit Gsk3b mRNA expression,significant increase of Gsk3b mRNA expression,did not observed the increased phosphorylation,"levels of pAKT (pAKT; individual compound, 6 hr): slightly reduce; enhanced MT potential compared with respective sulfur analog(s) (IMR-32 cells [3]; 6 hr): more pronounced; MT potential (IMR-32 cells [3]; repeated treatments (24 hr + 24 hr), 150 ppb): significantly enhanced MT potential"
